Experimental data reported in patent US8765211B2, “Method for coating metal implants with therapeutic mixtures” (Enbio Limited, priority 2009, dated 2014).

How the values were obtained:
[1] = Elution of gentamicin sulphate from PLGA-coated, abrasively blasted porous beaded titanium hip stem in phosphate saline buffer (Abbott TDx/FLX); format: physicochemical; conditions: Summit hip stem with Porocoat finish, GS plus PLGA overcoat, blasted with MCD/HA; immersed in 300 ml phosphate saline buffer
Protocol: This example describes the modification of an implantable titanium hip stem containing a porous beaded surface. A Summit hip stem (DePuy) with a Porocoat finish was used as the substrate. The active chosen for study was gentamicin sulphate (GS).
The stem was first coated GS by dissolving 0.6 g of GS in 10 ml of water and applying the solution to the surface drop wise. In total, 0.1575 g of GS was added to the surface. Once dry, a polymer overcoat was applied by adding a solution of PLGA (3.5 g of PLGA in 10 ml of dichloromethane) dropwise and allowing to dry The coated hip stem was then abrasively blasted as per WO2008/033867 to remove the outer layer of polymer. Blasting was carried out in a Comco Standard Lathe operating at a pressure of 100 psi. MCD abrasive grit (Supplied by Himed, New York) was used as the abrasive and HA (SAI, France) was used as the dopant. Each powder was fed in a separate stream at the surface at a pressure of 100 psi and with an offset distance of 15-25 mm. The blast device was moved over the surface at a speed of approximately 100 mm/sec.
Elution of the drug from the surface was evaluated by immersing the entire hip stem in 300 ml of phosphate saline buffer and measuring drug concentration in solution using an Abbott TDx/FLX system. […]

[2] = Elution of vancomycin from beaded Ti coupons with zero, one or two PLGA layers in PBS buffer (UV/VIS); format: physicochemical; conditions: beaded Ti coupon
Protocol: A 25 mm diameter coupon with a sintered titanium beaded surface was used as the test substrate. […] Vancomycin was dissolved in water to produce a solution of 0.5 g/25 ml. 0.5 ml of this solution was then applied in droplet form to the surface of each sample coupon and allowed to dry in an oven at 40° C. This technique was repeated three times to give a total loading of 1.5 ml of the vancomycin solution per coupon.
PLGA polymer (2.5 g) was dissolved in 50 mL of dichloromethane solvent. The polymer solution was added to the surface of the drug loaded coupons in a dropwise fashion similar to that employed to deploy the drug. Again, three applications of 0.5 ml were applied to produce a single layer of polymer with sufficient time being allowed between each application to allow the solvent to evaporate.
To investigate the effect of polymer coating thickness, a second set of three PLGA solutions were applied to form a batch of samples with 6 applications of polymer in total. This produced a sample with twice the coating thickness and is therefore herein referred to as having two layers of polymer.
All samples were then treated with an abrasive blasting process as described in WO2008/033867. The equipment platform was a Comco Standard Lathe. Two nozzles were employed to deliver an abrasive and a dopant respectively. The abrasive chosen was MCD 106 microns (Himed, NY, USA) and the dopant was hydroxyapatite (25/60 microns, SAI, France). The abrasive was delivered at a pressure of 75 psi and the dopant was delivered at 90 psi. The substrate was moved at a speed of 13 mm/sec relative to the nozzles.
Drug elution studies were carried out in PBS buffer solution and drug concentrations were determined using an Agilent 8453 UV/VIS spectrophotometer system. The elution profile of samples with zero, one and two layers of polymer were determined over 48 hours and the % vancomycin elution was determined. […] In the absence of any polymer coating, the drug had effectively eluted form the surface within 30 minutes and no further elution was detected.

Compound	duration of gentamicin release [1]	time in which the bulk of the drug is released [1]	time by which the drug had effectively eluted from the surface ([2]; no polymer coating (zero layers))	time to complete elution ([2]; single layer of polymer (3 applications of PLGA))	elution duration ([2]; twice the thickness of polymer (6 applications of PLGA, two layers))
gentamicin sulphate	4 days	within the first day	–	–	–
CN[C@H](CC(C)C)C(=O)N[C@H]1C(=O)N[C@@H](CC(N)=O)C(=O)N[C@H]2C(=O)N[C@H]3C(=O)N[C@H](C(=O)N[C@H](C(=O)O)c4cc(O)cc(O)c4-c4cc3ccc4O)[C@H](O)c3ccc(c(Cl)c3)Oc3cc2cc(c3O[C@@H]2O[C@H](CO)[C@@H](O)[C@H](O)[C@H]2O[C@H]2C[C@](C)(N)[C@H](O)[C@H](C)O2)Oc2ccc(cc2Cl)[C@H]1O [vancomycin]	–	–	≤ 30 min	up to 10 hours	24 h
